These are literature values, as cited in PubChem BioAssay AID1259409 (Chemical Carcinogenesis Research Information System (CCRIS), 2018).

Structures are written as SMILES.

This series concerns rodent chemically induced tumor inhibition, incidence and multiplicity. Description: CCRIS tumor inhibitor studies. As to conditions: Carcinogen: 7,12-DIMETHYLBENZ[A]ANTHRACENE, 57-97-6, Route [Inhibitor]: ORAL, Promoter: NONE USED.

`O=[Se](O)O`: the “tumour outcome (control, treated, inhibition, significance)” value is 18/32 (56%), 8/32 (25%), 55%, not calculated (Dose [Inhibitor]: 1 PPM IN DIET DAILY STARTING 1 WK PRIOR TO CARCINOGEN TREATMENT AND CONTINUING FOR DURATION OF STUDY (STUDY DURATION: 9, Species: MOUSE, Strain/Sex: BD2F1/FEMALE, Target Tissue: Type of Lesion: MAMMARY GLAND: TUMOR, Dose [Carcinogen]: 1 MG IN 0.2 ML COTTONSEED OIL 1/WK FOR 6 WK STARTING AT 8 WK OF AGE); 12/30 (40%), 9/31 (29%), 28%, not significant (Dose [Inhibitor]: 1.5 PPM IN 5% CORN OIL DIET DAILY STARTING 29 D BEFORE CARCINOGEN TREATMENT AND CONTINUING FOR DURATION OF STUDY (STUDY, Species: RAT, Strain/Sex: SPRAGUE-DAWLEY/FEMALE, Target Tissue: Type of Lesion: MAMMARY GLAND: ADENOCARCINOMA, Dose [Carcinogen]: 5 MG IN CORN OIL ONCE AT 50 D OF AGE); 21/30 (70%), 16/29 (55%), 21%, not significant (Dose [Inhibitor]: 1.5 PPM IN 25% CORN OIL DIET DAILY STARTING 29 D BEFORE CARCINOGEN TREATMENT AND CONTINUING FOR DURATION OF STUDY (STUDY, Species: RAT, Strain/Sex: SPRAGUE-DAWLEY/FEMALE, Target Tissue: Type of Lesion: MAMMARY GLAND: ADENOCARCINOMA, Dose [Carcinogen]: 5 MG IN CORN OIL ONCE AT 50 D OF AGE); 11/28 (39%), 2/28 (7%), 82%, not calculated (Dose [Inhibitor]: 2 PPM IN DIET DAILY STARTING 1 WK PRIOR TO CARCINOGEN TREATMENT AND CONTINUING FOR DURATION OF STUDY (STUDY DURATION: 9, Species: MOUSE, Strain/Sex: BALB/FEMALE, Target Tissue: Type of Lesion: MAMMARY GLAND: TUMOR, Dose [Carcinogen]: 1 MG IN 0.2 ML COTTONSEED OIL 1/WK FOR 6 WK STARTING AT 8 WK OF AGE); 18/32 (56%), 5/32 (16%), 71%, not calculated (Dose [Inhibitor]: 2 PPM IN DIET DAILY STARTING 1 WK PRIOR TO CARCINOGEN TREATMENT AND CONTINUING FOR DURATION OF STUDY (STUDY DURATION: 9, Species: MOUSE, Strain/Sex: BD2F1/FEMALE, Target Tissue: Type of Lesion: MAMMARY GLAND: TUMOR, Dose [Carcinogen]: 1 MG IN 0.2 ML COTTONSEED OIL 1/WK FOR 6 WK STARTING AT 8 WK OF AGE); 23/25 (92%), 18/25(72%), 22%, not significant (Dose [Inhibitor]: 2.5 MG/KG DIET DAILY STARTING 2 WK BEFORE CARCINOGEN TREATMENT AND CONTINUING FOR DURATION OF STUDY (STUDY DURATION: 26, Species: RAT, Strain/Sex: SPRAGUE-DAWLEY/FEMALE, Target Tissue: Type of Lesion: MAMMARY GLAND: ADENOCARCINOMA, Dose [Carcinogen]: 10 MG ONCE AT 50 D OF AGE). Further, the “tumour outcome (control, treated, inhibition, significance)” value is, setting by setting: (Dose [Inhibitor]: 2.5 MG/KG DIET DAILY STARTING 2 WK BEFORE CARCINOGEN TREATMENT AND CONTINUING FOR DURATION OF STUDY (STUDY DURATION: 27, Species: RAT, Strain/Sex: SPRAGUE-DAWLEY/FEMALE, Target Tissue: Type of Lesion: MAMMARY GLAND: ADENOCARCINOMA, Dose [Carcinogen]: 10 MG ONCE AT 50 D OF AGE) 28/30 (93%), 23/30(77%), 17%, not significant; (Dose [Inhibitor]: 2.5 PPM IN 5% CORN OIL DIET DAILY STARTING 29 D BEFORE CARCINOGEN TREATMENT AND CONTINUING FOR DURATION OF STUDY (STUDY, Species: RAT, Strain/Sex: SPRAGUE-DAWLEY/FEMALE, Target Tissue: Type of Lesion: MAMMARY GLAND: ADENOCARCINOMA, Dose [Carcinogen]: 5 MG IN CORN OIL ONCE AT 50 D OF AGE) 12/30 (40%), 7/29 (24%), 40%, not significant; (Dose [Inhibitor]: 2.5 PPM IN 5% CORN OIL DIET DAILY STARTING 29 D BEFORE CARCINOGEN TREATMENT AND CONTINUING FOR DURATION OF STUDY (STUDY, Species: RAT, Strain/Sex: SPRAGUE-DAWLEY/FEMALE, Target Tissue: Type of Lesion: MAMMARY GLAND: ADENOCARCINOMA, Dose [Carcinogen]: 10 MG IN CORN OIL ONCE AT 50 D OF AGE) 21/30 (70%), 13/29 (45%), 36%, p<0.05; (Dose [Inhibitor]: 2.5 PPM IN 5% CORN OIL DIET DAILY STARTING AT WEANING AND CONTINUING FOR DURATION OF STUDY (STUDY DURATION: 25 WK), Species: RAT, Strain/Sex: SPRAGUE-DAWLEY/FEMALE, Target Tissue: Type of Lesion: MAMMARY GLAND: ADENOCARCINOMA, Dose [Carcinogen]: 5 MG ONCE AT AGE 50 D) 40%, 24%, 40%, not calculated; (Dose [Inhibitor]: 2.5 PPM IN 25% CORN OIL DIET DAILY STARTING 29 D BEFORE CARCINOGEN TREATMENT ANDCONTINUING FOR DURATION OF STUDY (STUDY, Species: RAT, Strain/Sex: SPRAGUE-DAWLEY/FEMALE, Target Tissue: Type of Lesion: MAMMARY GLAND: ADENOCARCINOMA, Dose [Carcinogen]: 5 MG IN CORN OIL ONCE AT 50 D OF AGE) 21/30 (70%), 10/30 (33%), 53%, p<0.01; (Dose [Inhibitor]: 2.5 PPM IN 25% CORN OIL DIET DAILY STARTING AT WEANING AND CONTINUING FOR DURATION OF STUDY (STUDY DURATION: 25 WK), Species: RAT, Strain/Sex: SPRAGUE-DAWLEY/FEMALE, Target Tissue: Type of Lesion: MAMMARY GLAND: ADENOCARCINOMA, Dose [Carcinogen]: 5 MG ONCE AT AGE 50 D) 70%, 33%, 53%, not calculated. In addition, the “tumour outcome (control, treated, inhibition, significance)” value reads like this: (Dose [Inhibitor]: 2.5 PPM IN HIGH-SATURATED FAT DIET CONTAINING 1% CORN OIL AND 24% HYDROGENATED COCONUT OIL DAILY STARTING AT WEANING AND, Species: RAT, Strain/Sex: SPRAGUE-DAWLEY/FEMALE, Target Tissue: Type of Lesion: MAMMARY GLAND: TUMOR, Dose [Carcinogen]: 5 MG ONCE AT AGE 50 D) 7/25 (28%), 5/25 (20%), 29%, not significant; (Dose [Inhibitor]: 2.5 PPM IN HIGH-SATURATED FAT DIET CONTAINING 1% CORN OIL AND 24% HYDROGENATED COCONUT OIL DAILY STARTING AT WEANING AND, Species: RAT, Strain/Sex: SPRAGUE-DAWLEY/FEMALE, Target Tissue: Type of Lesion: MAMMARY GLAND: TUMOR, Dose [Carcinogen]: 10 MG ONCE AT AGE 50 D) 16/25 (64%), 8/24 (33%), 48%, p<0.05; (Dose [Inhibitor]: 4 MG/KG DIET DAILY FOR 28 WK STARTING 2 WK BEFORE START OF CARCINOGEN TREATMENT AND CONTINUING FOR DURATION OF STUDY (ST, Species: RAT, Strain/Sex: SPRAGUE-DAWLEY/FEMALE, Target Tissue: Type of Lesion: MAMMARY GLAND: TUMOR, Dose [Carcinogen]: 5 MG IN CORN OIL 1/WK FOR 3 WK) 90%, 53%, 41%, p<0.01.
